Measurements published in article PMC5429698, “Biochemical analysis of leishmanial and human GDP-Mannose Pyrophosphorylases and selection of inhibitors as new leads” (Scientific Reports, 2017).
Where “and” joins values, the source holds several entries; their conditions need not be identical. Identical values can stand only once. Like-named read-outs stand apart in the source and are kept apart here.

What was measured:
LmGDP-MP = LmGDP-MP (Leishmania mexicana, UniProt E9AW11); test: biochemical; assay type: biochemical; conditions: for Km: read-out: Km (µM) ± SD of LmGDP-MP
LmGDP-MP, sequence (E9AW11 entry or part of it): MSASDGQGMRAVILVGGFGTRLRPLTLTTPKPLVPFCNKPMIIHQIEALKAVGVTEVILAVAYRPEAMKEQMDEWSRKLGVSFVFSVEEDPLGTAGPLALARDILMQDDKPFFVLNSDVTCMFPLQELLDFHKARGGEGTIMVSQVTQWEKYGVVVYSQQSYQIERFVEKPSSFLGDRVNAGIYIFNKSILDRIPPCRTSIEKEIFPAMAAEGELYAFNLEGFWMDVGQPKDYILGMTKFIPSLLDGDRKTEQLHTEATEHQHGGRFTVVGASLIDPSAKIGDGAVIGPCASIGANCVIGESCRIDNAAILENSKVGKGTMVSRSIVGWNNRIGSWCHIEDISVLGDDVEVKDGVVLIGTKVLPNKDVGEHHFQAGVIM
Description: (§1) GDP-MP catalyzes the following reaction: Man‐1‐P+GTP→GDP−Mannose+Pyrophosphate The reaction media were buffered at pH optima and contained optimal concentrations of Man-1-P, GTP, GDP-MP and Mg^2+ determined for each purified GDP-MP (Fig. 2d), supplemented with DTT (1 mM). Inorganic pyrophosphatase, which hydrolyses the inorganic pyrophosphates generated by the GDP-MPs in inorganic phosphates, was added at 0.1 U/ml (Sigma-Aldrich). Inorganic pyrophosphatase was added in excess to the reaction medium in order to minimize the probability that the putative inhibitors of GDP-MPs interfere with this enzyme. The reaction was initiated by the addition of GDP-MP, and was stopped after adding 100 µl of revelation buffer containing malachite green (0.03% w/v), ammonium molybdate (0.2% w/v) and Triton X-100 (0.05% v/v) in HCl (0.7 M) for 5 min at the optimal temperature. The quantity of inorganic phosphate generated, representing GDP-MP activity, was determined by measuring OD650nm (Lab systems Multiskan MS). The molar extinction coefficient ε of the end product detected was determined by measuring OD650nm with a range of inorganic phosphate concentrations diluted in the revelation buffer and was calculated at 27207 M^−1 cm^−1 (Supplementary Fig. S2). The kinetic constants K m, V m and k cat were determined by non linear regression using GraphPad Prism 6.0.
(§2) Enzyme activity was measured as described above in the presence of 100 µM of compounds and the percentage of inhibition was calculated in reference to untreated enzyme. As a control, compounds were evaluated in parallel in the same conditions on inorganic pyrophosphatase alone in order to discard false-positives. […] Furthermore, no effect was observed on the activity of the three purified GDP-MPs with 1% DMSO, corresponding to the maximal solvent concentration used at 100 µM of compound. Compounds presenting a minimum of 50% inhibition on a leishmanial GDP-MP were subsequently selected to determine their type of inhibition and their K i values. Inhibition data were fitted to competitive, non-competitive or uncompetitive models of enzyme inhibition by non linear least squares regression analysis using GraphPad Prism 6.0.

[1] = system: L. mexicana intramacrophage amastigotes in infected BMDM; test: microbe, parasite or virus in culture; assay type: cell-based; conditions: for IC50: Leishmania mexicana, BMDM, 48 h, 48 h treatment, read-out: IC50 (µM) ± SD L. mexicana infected BMDM
Description: (§3) Concerning the evaluation on intramacrophage amastigotes, RAW 264.7 macrophages (from ATCC) and bone marrow derived macrophages (BMDM) were plated in 96-well microplates at a density of 2 × 10^4 cells per well and incubated for 24 h at 37 °C with 5% CO2 for RAW264.7 cells or at 37 °C with 7% CO2 for BMDM. Axenic amastigotes were differenciated as described above, centrifuged at 2,000 g for 10 min, resuspended in DMEM complete medium, and added to each well to reach a 16:1 parasite to macrophage ratio. After 24 h of infection at 37 °C with 5% CO2 for RAW264.7 cells or at 37 °C with 7% CO2 for BMDM, extracellular parasites were removed, and DMEM complete medium (100 µl) containing two fold serial dilutions of the compounds from a maximal concentration of 100 µM was added to each well. After 48 h of treatment, the medium was removed and replaced by DirectPCR Lysis Reagent (100 µl; Euromedex) before 3 freeze-thaw cycles at room temperature, addition of 50 µg/ml proteinase K, and a final incubation at 55 °C overnight to allow cell lysis. 10 µl of each cell extract was then added to 40 µl of DirectPCR Lysis reagent containing Sybr Green I (0.05%; Invitrogen). DNA fluorescence was monitored using Mastercycler® realplex (Eppendorf). The activity of the compounds was expressed as IC50. Miltefosine was used as the reference drug.

[2] = system: L. mexicana intramacrophage amastigotes in infected RAW.264.7 macrophages; test: microbe, parasite or virus in culture; assay type: cell-based; conditions: for IC50: 48 h treatment, read-out: IC50 (µM) ± SD L. mexicana infected RAW.264.7 macrophages
Description: as §3

[3] = system: L. mexicana axenic amastigotes; test: Antileishmanial evaluation on axenic amastigotes (resazurin); assay type: cell-based
Description: (§4) The evaluations of activity on axenic and intramacrophage amastigotes were adapted from the protocols previously described. Briefly, for the evaluation on axenic amastigotes, two fold serial dilutions of the compounds from a maximal concentration of 100 µM were performed in 100 µl of complete medium (see above) in 96-well microplates. Axenic amastigotes were then added to each well at a density of 10^6/ml in a 200 µl final volume. After 72 h of treatment at 37 °C for L. donovani or at 32 °C for L. mexicana with 5% CO2, 20 µl of resazurin (450 µM) was added to each well and further incubated in the dark for 24 h at 37 °C for L. donovani or at 32 °C for L. mexicana with 5% CO2. In living cells, resazurin is reduced in resorufin and this conversion is monitored by measuring OD570nm (resorufin) and OD600nm (resazurin; Lab systems Multiskan MS). The activity of the compounds was expressed as IC50. Miltefosine was used as the reference drug.

[4] = system: L. donovani axenic amastigotes; test: as above; assay type: cell-based; conditions: 72 h treatment, 37 °C, read-out: IC50 (µM) ± SD L. donovani axenic amastigotes
Description: as §4

Cytotoxicity (resazurin) [5] = assay type: cell-based; conditions: mouse, RAW264.7 macrophages; 48 h incubation; read-out: Cytotoxicity CC50 (µM) ± SD RAW264.7 macrophages
Description: (§5) Cells were plated in 96-well microplates at a density of 2 × 10^4 cells per well. After an incubation of 24 h at 37 °C with 5% CO2 for RAW264.7 cells or at 37 °C with 7% CO2 for BMDM, the medium was removed in each well, and 100 µl of DMEM complete medium containing two fold serial dilutions of the compounds was added to each well. […] Cell viability was then monitored as described above.

[6] = system: inorganic pyrophosphatase; test: Control for false positives on inorganic pyrophosphatase alone; assay type: biochemical; conditions: compound at 100 µM, same conditions as the GDP-MP assay
Description: as §2

Cytotoxicity (resazurin) [7] = assay type: cell-based, Balb/c mice; conditions: Balb/c, mouse, bone marrow derived macrophages (BMDM); 48 h incubation; read-out: Cytotoxicity CC50 (µM) ± SD BMDM
Description: as §5

[8] = system: L. donovani intramacrophage amastigotes in infected BMDM; test: Antileishmanial evaluation on intramacrophage amastigotes, BMDM host; assay type: cell-based; conditions: for Selectivity index (CC50/IC50) L. donovani BMDM: CC50 BMDM / IC50 infected BMDM; for IC50: Leishmania donovani, BMDM, 48 h treatment, read-out: IC50 (µM) ± SD L. donovani infected BMDM
Description: as §3

[9] = system: L. donovani intramacrophage amastigotes in infected RAW.264.7 macrophages; test: Antileishmanial evaluation on intramacrophage amastigotes, RAW264.7 host; assay type: cell-based; conditions: for IC50: 48 h treatment, read-out: IC50 (µM) ± SD L. donovani infected RAW.264.7 macrophages; for Selectivity index (CC50/IC50) L. donovani RAW264.7 macrophages: CC50 RAW264.7 / IC50 infected RAW264.7
Description: as §3

[10] = system: leishmanial GDP-MP (LdGDP-MP and/or LmGDP-MP); test: Screen of the 100 compound library at 100 µM on purified leishmanial GDP-MPs; assay type: biochemical, Leishmania; conditions: compound at 100 µM
Description: as §1, §2

hGDP-MP = target: T1, hGDP-MP (Homo sapiens, UniProt Q9Y5P6); test: GDP-MP enzymatic assay (malachite green) on purified hGDP-MP; assay type: biochemical
T1 construct: made in house; host or cells: E. coli BL21(DE3), co-transformed with chaperone plasmid pG-KJE3
T1 sequence (Q9Y5P6 whole entry): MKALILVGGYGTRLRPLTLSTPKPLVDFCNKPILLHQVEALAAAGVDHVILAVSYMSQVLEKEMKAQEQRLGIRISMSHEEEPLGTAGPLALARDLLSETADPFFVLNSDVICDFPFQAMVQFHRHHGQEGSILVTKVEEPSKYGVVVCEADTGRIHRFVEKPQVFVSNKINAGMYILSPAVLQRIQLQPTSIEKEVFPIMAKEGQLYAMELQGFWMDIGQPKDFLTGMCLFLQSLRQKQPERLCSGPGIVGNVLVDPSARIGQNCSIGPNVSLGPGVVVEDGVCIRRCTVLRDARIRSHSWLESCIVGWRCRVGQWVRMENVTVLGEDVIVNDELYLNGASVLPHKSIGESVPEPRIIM
Description: as §1, with “The reaction was initiated by the addition of GDP-MP, and was stopped after adding 100 µl of revelation buffer containing malachite green (0.03% w/v), ammonium molybdate (0.2% w/v) and Triton X-100 (0.05% v/v) in HCl (0.7 M) for 5 min at the optimal temperature.” left out
(§6) Enzyme activity was measured as described above in the presence of 100 µM of compounds and the percentage of inhibition was calculated in reference to untreated enzyme. […]

L. major GDP-MP = system: L. major GDP-MP; set-up: method as in PMID 20160053; conditions: high throughput screening; cited from earlier work
[11] = system: L. major intramacrophage amastigotes; set-up: method as in PMID 20160053; conditions: cited from earlier work
LdGDP-MP = LdGDP-MP (Leishmania donovani, UniProt E9BG32); test: biochemical; conditions: Man-1-P 10-100 µM, GTP 100 µM
LdGDP-MP, sequence (E9BG32 entry or part of it): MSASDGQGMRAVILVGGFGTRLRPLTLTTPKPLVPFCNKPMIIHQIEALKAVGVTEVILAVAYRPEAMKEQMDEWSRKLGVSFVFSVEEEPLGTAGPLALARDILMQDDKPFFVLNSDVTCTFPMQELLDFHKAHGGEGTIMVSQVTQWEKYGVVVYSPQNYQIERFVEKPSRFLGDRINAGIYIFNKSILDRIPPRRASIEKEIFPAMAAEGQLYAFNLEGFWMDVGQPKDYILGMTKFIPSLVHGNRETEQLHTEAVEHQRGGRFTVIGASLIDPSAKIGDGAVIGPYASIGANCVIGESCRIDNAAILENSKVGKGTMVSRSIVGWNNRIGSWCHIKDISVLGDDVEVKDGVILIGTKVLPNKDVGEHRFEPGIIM
Description: as §1, with “The reaction was initiated by the addition of GDP-MP, and was stopped after adding 100 µl of revelation buffer containing malachite green (0.03% w/v), ammonium molybdate (0.2% w/v) and Triton X-100 (0.05% v/v) in HCl (0.7 M) for 5 min at the optimal temperature.” left out
as §6

T. brucei GDP-MP = system: T. brucei GDP-MP; set-up: method as in PMID 19919534; conditions: cited from earlier work
[12] = CC50 RAW264.7 / IC50 infected RAW264.7
[13] = Leishmania mexicana, RAW264.7, 48 h
[14] = Leishmania mexicana, 72 h, 72 h treatment, 32 °C, read-out: IC50 (µM) ± SD L. mexicana axenic amastigotes
[15] = Leishmania donovani, RAW264.7, 48 h

Row | Compound | Selectivity index (CC50/IC50) L. mexicana BMDM ([1]; CC50 BMDM / IC50 infected BMDM) | IC50 [1] [µM] | Selectivity index (CC50/IC50) L. mexicana RAW264.7 macrophages [2, 12] | IC50 [2, 13] [µM] | IC50 [3, 14] [µM] | IC50 ([4]; Leishmania donovani, 72 h) [µM] | Ki (LmGDP-MP) [µM] | CC50 at 48 h (Cytotoxicity (resazurin) [5]) [µM] | inhibition of inorganic pyrophosphatase [6] [%] | CC50 at 48 h (Cytotoxicity (resazurin) [7]) [µM] | Selectivity index (CC50/IC50) L. donovani BMDM [8] | IC50 [8] [µM] | IC50 [9, 15] [µM] | enzyme inhibition on a leishmanial GDP-MP [10] | Selectivity index (CC50/IC50) L. donovani RAW264.7 macrophages [9] | other results
1 | O=P(O)(O)OC1O[C@H](CO)[C@@H](O)[C@H](O)[C@@H]1O (some centres unmarked) [Man-1-P, mannose-1-phosphate] |  |  |  |  |  |  |  |  |  |  |  |  |  |  |  | Km (LmGDP-MP): 11.6 ± 1.76 µM
2 | O=C(NCc1ccccc1)c1ccc2nc(-c3ccccc3)c(-c3ccccc3)nc2c1 [compound 46] | 0.8 | 15.7 ± 3.48 | >8.5 | 11.7 ± 1.13 | 7.69 ± 0.56 | > 100 | 25.6 ± 3.46 | > 100 | < 5 | 13.1 ± 1.67 | 1.0 | 12.5 ± 0.93 | > 100 | above 50% |  | 
3 | Nc1nc2c(ncn2[C@@H]2O[C@H](COP(=O)(O)OP(=O)(O)OP(=O)(O)O)[C@@H](O)[C@H]2O)c(=O)[nH]1 [GTP] |  |  |  |  |  |  |  |  |  |  |  |  |  |  |  | Km (LmGDP-MP; other substrate held constant at 80 µM): 7.67 ± 2.28 µM
4 | Nc1nc2c(ncn2C2OC(Cn3cc(-c4ccc(-c5ccccc5)cc4)nn3)C(O)C2O)c(=O)[nH]1 (centres unmarked) [compound 83] | 0.9 | 25.9 ± 5.37 | >2.2 | 45.4 ± 6.21 | 30.6 ± 3.29 | > 100 | 25.4 ± 4.23 | > 100 | < 5 | 23.8 ± 1.98 | 0.9 | 27.1 ± 2.04 | 51.9 ± 7.49 | above 50% | >1.9 | 
5 | O=c1[nH]cnc2c1ncn2[C@@H]1O[C@H](COP(=O)(O)OP(=O)(O)OP(=O)(O)O)[C@@H](O)[C@H]1O [ITP] |  |  |  |  |  |  |  |  |  |  |  |  |  |  |  | LmGDP-MP activity with substrate analogue compared to GTP (LmGDP-MP; NTP at 100 µM): 22–24%; hGDP-MP activity with substrate analogue compared to GTP (hGDP-MP; NTP at 100 µM): 22–24% and 24%
6 | CC(C)(C)c1ccc(CN2CCN(c3ccnc4cc(Cl)ccc34)CC2)cc1 [compound 100, reference compound] | 4.3 | 12.1 ± 1.27 | 2.3 | 20 to 27.5 | 30 to 50 | 30 to 50 |  | 62.1 ± 7.39 | < 5 | 51.4 ± 3.45 | 4.2 | 12.2 ± 4.74 | 20 to 27.5 | above 50% | 3.2 | IC50 [2]: 27.5 ± 2.23 µM; IC50 ([3]; 72 h treatment, 32 °C, read-out: IC50 (µM) ± SD L. mexicana axenic amastigotes): 49.25 ± 0.26 µM; IC50 [4]: 30.7 ± 6.62 µM; IC50 (L. major GDP-MP): 0.58 µM; IC50 [9]: 19.5 ± 4.53 µM; IC50 [11]: 21.9 µM; Ki (hGDP-MP; Man-1-P 10-100 µM, GTP 100 µM): 19.7 µM and ~20 µM; Ki (LdGDP-MP): 61.8 ± 16.3 µM
7 | CCCCCCCCCCCCCCCCOP(=O)([O-])OCC[N+](C)(C)C [Miltefosine, reference compound] |  | 51.4 ± 5.34 |  | 52.6 ± 4.98 |  | 2.08 ± 0.24 |  | > 25 |  | > 25 | >30.1 | 0.83 ± 0.12 | 1.83 ± 0.22 |  |  | Selectivity index (CC50/IC50) L. mexicana BMDM [1]: >0.5; Selectivity index (CC50/IC50) L. mexicana RAW264.7 macrophages [2]: >0.5; IC50 ([3]; Leishmania mexicana, 72 h, read-out: IC50 (µM) ± SD L. mexicana axenic amastigotes, 72 h treatment, 32 °C): 23.7 ± 2.81 µM
8 | Nc1ncnc2c1ncn2[C@@H]1O[C@H](COP(=O)(O)OP(=O)(O)OP(=O)(O)O)[C@@H](O)[C@H]1O [ATP] |  |  |  |  |  |  |  |  |  |  |  |  |  |  |  | Km (T. brucei GDP-MP): 290 µM
9 | Clc1ccc2nc(COCCn3cc(-c4ccc(-c5ccccc5)cc4)nn3)ccc2c1 [compound 92] | 1.0 | 79.3 ± 9.76 | >12.1 | < 10 | 43.1 ± 3.42 | > 100 | 16 ± 3.51 | > 100 | < 5 | 77.5 ± 5.34 | 0.9 | 82.5 ± 7.61 | 41.6 ± 14 | above 50% | >2.4 | IC50 [2]: 8.25 ± 1.07 µM
